Bounds are passed on as bounds.

This assay concerns the target T1, human PTHR1 receptor (Homo sapiens, UniProt Q03431).
T1 construct: purchased Eurofins HTS030M
T1 sequence (Q03431 27-593): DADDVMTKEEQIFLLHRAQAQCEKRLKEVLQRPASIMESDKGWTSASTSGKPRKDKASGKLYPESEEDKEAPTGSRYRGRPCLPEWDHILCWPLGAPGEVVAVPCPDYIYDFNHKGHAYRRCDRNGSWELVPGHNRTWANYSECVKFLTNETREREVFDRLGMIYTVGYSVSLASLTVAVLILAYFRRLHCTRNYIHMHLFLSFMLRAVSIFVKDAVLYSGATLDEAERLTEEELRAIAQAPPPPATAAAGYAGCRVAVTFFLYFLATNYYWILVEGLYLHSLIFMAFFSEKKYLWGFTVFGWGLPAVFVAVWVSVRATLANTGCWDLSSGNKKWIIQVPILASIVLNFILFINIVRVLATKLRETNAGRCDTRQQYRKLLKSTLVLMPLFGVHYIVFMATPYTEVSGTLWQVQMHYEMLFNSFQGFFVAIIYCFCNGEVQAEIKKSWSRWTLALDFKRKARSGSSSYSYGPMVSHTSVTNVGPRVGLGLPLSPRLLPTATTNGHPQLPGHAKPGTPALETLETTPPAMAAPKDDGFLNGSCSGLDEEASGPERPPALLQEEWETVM
The assay is described as follows: Competitive antagonist binding assay for hPTH-R1 (radioactive competition binding, SPA beads). Conditions: human PTHR1 membranes, [125I]-[Nle8,18,Tyr34]-PTH(1-34) 0.2 nM, 90 minutes at room temperature; read-out: hPTHR1 Ki. Summed up: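 Human PTHR1 membranes on SPA beads incubated 90 min at room temperature with compound (typically 0-10,000 nM final) and 0.2 nM [125I]-[Nle8,18,Tyr34]-PTH(1-34) in HEPES buffer with MgCl2, CaCl2, BSA, Triton X-100 and protease inhibitors, pH 7.4. Scintillation signal read; Ki values derived.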
As to `CN1C(=O)N(c2c(F)cc(NCCNCCO)cc2F)c2cc(C#N)cc(F)c2-c2cc(Cl)cnc21` [1-116, 4-chloro-10-[2,6-difluoro-4-({2-[(2-hydroxyethyl)amino]ethyl}amino)phenyl]-15-fluoro-8-methyl-9-oxo-6,8,10-triazatricyclo[9.4.0.0^2,7]pentadeca-1(11),2(7),3,5,12,14-hexaene-13-carbonitrile], the Ki is under 100 nM.
On to `CCCN1C(=O)N(c2c(F)cc(NCCNC)cc2F)c2cc(C#N)ccc2-c2cc(F)cnc21` [1-117, 10-(2,6-difluoro-4-{[2-(methylamino)ethyl]amino}phenyl)-4-fluoro-9-oxo-8-propyl-6,8,10-triazatricyclo[9.4.0.0^2,7]pentadeca-1(11),2(7),3,5,12,14-hexaene-13-carbonitrile], for which the Ki is under 100 nM.
For the molecule `CCCN1C(=O)N(c2c(F)cc(NCCNCCO)cc2F)c2cc(C#N)ccc2-c2cc(F)cnc21` [1-118, 10-[2,6-difluoro-4-({2-[(2-hydroxyethyl)amino]ethyl}amino)phenyl]-4-fluoro-9-oxo-8-propyl-6,8,10-triazatricyclo[9.4.0.0^2,7]pentadeca-1(11),2(7),3,5,12,14-hexaene-13-carbonitrile], the Ki was under 100 nM.
The value for `CCCN1C(=O)N(c2c(F)cc(NCCNC)cc2F)c2cc(C#N)ccc2-c2cc(Cl)cnc21` [1-119, 4-chloro-10-(2,6-difluoro-4-{[2-(methylamino)ethyl]amino}phenyl)-9-oxo-8-propyl-6,8,10-triazatricyclo[9.4.0.0^2,7]pentadeca-1(11),2(7),3,5,12,14-hexaene-13-carbonitrile] was under 100 nM; that for `CCCN1C(=O)N(c2c(F)cc(NCCNCCO)cc2F)c2cc(C#N)ccc2-c2cc(Cl)cnc21` [1-120, 4-chloro-10-[2,6-difluoro-4-({2-[(2-hydroxyethyl)amino]ethyl}amino)phenyl]-9-oxo-8-propyl-6,8,10-triazatricyclo[9.4.0.0^2,7]pentadeca-1(11),2(7),3,5,12,14-hexaene-13-carbonitrile] was under 100 nM.
For the molecule `CNCCNc1cc(F)c(N2C(=O)N(CCO)c3ncc(F)cc3-c3ccc(C#N)cc32)c(F)c1` [1-121, 10-(2,6-difluoro-4-{[2-(methylamino)ethyl]amino}phenyl)-4-fluoro-8-(2-hydroxyethyl)-9-oxo-6,8,10-triazatricyclo[9.4.0.0^2,7]pentadeca-1(11),2(7),3,5,12,14-hexaene-13-carbonitrile], the inhibition constant (Ki) is 100 to 1000 nM.
On to `CNCCNc1cc(F)c(N2C(=O)N(CCOC)c3ncc(F)cc3-c3ccc(C#N)cc32)c(F)c1` [1-122, 10-(2,6-difluoro-4-{[2-(methylamino)ethyl]amino}phenyl)-4-fluoro-8-(2-methoxyethyl)-9-oxo-6,8,10-triazatricyclo[9.4.0.0^2,7]pentadeca-1(11),2(7),3,5,12,14-hexaene-13-carbonitrile], for which the inhibition constant Ki is under 100 nM.
The value for `CCN1C(=O)N(c2c(F)cc(N3CC(CN)C3)cc2F)c2cc(C#N)ccc2-c2cc(F)cnc21` [1-123, 10-{4-[3-(aminomethyl)azetidin-1-yl]-2,6-difluorophenyl}-8-ethyl-4-fluoro-9-oxo-6,8,10-triazatricyclo[9.4.0.0^2,7]pentadeca-1(11),2(7),3,5,12,14-hexaene-13-carbonitrile] was under 100 nM.
As for `CCN1C(=O)N(c2c(F)cc(N3CC(NCCO)C3)cc2F)c2cc(C#N)ccc2-c2cc(F)cnc21` [1-124, 10-(2,6-difluoro-4-{3-[(2-hydroxyethyl)amino]azetidin-1-yl}phenyl)-8-ethyl-4-fluoro-9-oxo-6,8,10-triazatricyclo[9.4.0.0^2,7]pentadeca-1(11),2(7),3,5,12,14-hexaene-13-carbonitrile], the Ki lay within 100 to 1000 nM.
For `CCCN1C(=O)N(c2c(F)cc(NCCNCCO)cc2F)c2cc(C#N)cc(F)c2-c2cc(F)cnc21` [1-125, 10-[2,6-difluoro-4-({2-[(2-hydroxyethyl)amino]ethyl}amino)phenyl]-4,15-difluoro-9-oxo-8-propyl-6,8,10-triazatricyclo[9.4.0.0^2,7]pentadeca-1(11),2(7),3,5,12,14-hexaene-13-carbonitrile], the inhibitory constant (Ki) is under 100 nM.
Consider `CCN1C(=O)N(c2c(F)cc(NCCN)cc2F)c2cc(C#N)ccc2-c2cc(Cl)cnc21` [1-126, 10-{4-[(2-aminoethyl)amino]-2,6-difluorophenyl}-4-chloro-8-ethyl-9-oxo-6,8,10-triazatricyclo[9.4.0.0^2,7]pentadeca-1(11),2(7),3,5,12,14-hexaene-13-carbonitrile], for which the Ki was under 100 nM.
With `CCN1C(=O)N(c2c(F)cc(NCCNCCNC)cc2F)c2cc(C#N)ccc2-c2cc(Cl)cnc21` [1-127, 4-chloro-10-{2,6-difluoro-4-[(2-{[2-(methylamino)ethyl]amino}ethyl)amino]phenyl}-8-ethyl-9-oxo-6,8,10-triazatricyclo[9.4.0.0^2,7]pentadeca-1(11),2(7),3,5,12,14-hexaene-13-carbonitrile], the Ki is under 100 nM.
For the molecule `CCN1C(=O)N(c2c(F)cc(NCCN3CCNC(=O)C3)cc2F)c2cc(C#N)ccc2-c2cc(Cl)cnc21` [1-128, 4-chloro-10-(2,6-difluoro-4-{[2-(3-oxopiperazin-1-yl)ethyl]amino}phenyl)-8-ethyl-9-oxo-6,8,10-triazatricyclo[9.4.0.0^2,7]pentadeca-1(11),2(7),3,5,12,14-hexaene-13-carbonitrile], the inhibition constant Ki was 100 to 1000 nM.
Under `CCN1C(=O)N(c2c(F)cc(NCCNCCO)cc2F)c2cc(F)ccc2-c2cc(Cl)cnc21` [1-129, 4-chloro-10-[2,6-difluoro-4-({2-[(2-hydroxyethyl)amino]ethyl}amino)phenyl]-8-ethyl-13-fluoro-6,8,10-triazatricyclo[9.4.0.0^2,7]pentadeca-1(11),2(7),3,5,12,14-hexaen-9-one] stands under 100 nM.
Consider `CCN1C(=O)N(c2c(F)cc(NCCNC)cc2F)c2cc(F)ccc2-c2cc(Cl)cnc21` [1-130, 4-chloro-10-(2,6-difluoro-4-{[2-(methylamino)ethyl]amino}phenyl)-8-ethyl-13-fluoro-6,8,10-triazatricyclo[9.4.0.0^2,7]pentadeca-1(11),2(7),3,5,12,14-hexaen-9-one], for which the inhibition constant (Ki) is under 100 nM.
As for `CCN1C(=O)N(c2c(F)cc(NCCNCCN)cc2F)c2cc(C#N)ccc2-c2cc(Cl)cnc21` [1-131, 10-[4-({2-[(2-aminoethyl)amino]ethyl}amino)-2,6-difluorophenyl]-4-chloro-8-ethyl-9-oxo-6,8,10-triazatricyclo[9.4.0.0^2,7]pentadeca-1(11),2(7),3,5,12,14-hexaene-13-carbonitrile], the Ki was under 100 nM.
As for `CCN1C(=O)N(c2c(F)cc(NCCNCCN(C)C)cc2F)c2cc(C#N)ccc2-c2cc(Cl)cnc21` [1-132, 4-chloro-10-{4-[(2-{[2-(dimethylamino)ethyl]amino}ethyl)amino]-2,6-difluorophenyl}-8-ethyl-9-oxo-6,8,10-triazatricyclo[9.4.0.0^2,7]pentadeca-1(11),2(7),3,5,12,14-hexaene-13-carbonitrile], the inhibition constant (Ki) is under 100 nM.
In the case of `CCNCCNc1cc(F)c(N2C(=O)N(CC)c3ncc(Cl)cc3-c3ccc(C#N)cc32)c(F)c1` [1-133, 4-chloro-8-ethyl-10-(4-{[2-(ethylamino)ethyl]amino}-2,6-difluorophenyl)-9-oxo-6,8,10-triazatricyclo[9.4.0.0^2,7]pentadeca-1(11),2(7),3,5,12,14-hexaene-13-carbonitrile], the Ki was under 100 nM.
Turning to `CCN1C(=O)N(c2c(F)cc(NCCNCCO)cc2F)c2cc(Cl)cc(C#N)c2-c2cc(F)cnc21` [1-134, 13-chloro-10-[2,6-difluoro-4-({2-[(2-hydroxyethyl)amino]ethyl}amino)phenyl]-8-ethyl-4-fluoro-9-oxo-6,8,10-triazatricyclo[9.4.0.0^2,7]pentadeca-1(11),2(7),3,5,12,14-hexaene-15-carbonitrile], the Ki is under 100 nM.
Consider `CCN1C(=O)N(c2c(F)cc(NCCNC)cc2F)c2ccccc2-c2cc(Cl)cnc21` [1-135, 4-chloro-10-(2,6-difluoro-4-{[2-(methylamino)ethyl]amino}phenyl)-8-ethyl-6,8,10-triazatricyclo[9.4.0.0^2,7]pentadeca-1(11),2(7),3,5,12,14-hexaen-9-one], for which the Ki was under 100 nM.
Consider `CCN1C(=O)N(c2c(F)cc(N3CCNCC3)cc2F)c2cc(C#N)ccc2-c2cc(Cl)cnc21` [1-136, 4-chloro-10-[2,6-difluoro-4-(piperazin-1-yl)phenyl]-8-ethyl-9-oxo-6,8,10-triazatricyclo[9.4.0.0^2,7]pentadeca-1(11),2(7),3,5,12,14-hexaene-13-carbonitrile], for which the inhibition constant (Ki) lay within 100 to 1000 nM.
In the case of `CCN1C(=O)N(c2c(F)cc(NCCNCC(C)O)cc2F)c2cc(C#N)ccc2-c2cc(Cl)cnc21` (stereo not shown) [1-137, 4-chloro-10-[2,6-difluoro-4-({2-[(2-hydroxypropyl)amino]ethyl}amino)phenyl]-8-ethyl-9-oxo-6,8,10-triazatricyclo[9.4.0.0^2,7]pentadeca-1(11),2(7),3,5,12,14-hexaene-13-carbonitrile], the inhibition constant (Ki) is under 100 nM.

For orientation: Ki means a dissociation constant, usually derived from enzyme kinetics or from competition with a known ligand.
